One experiment deals with WT mice. Description: Contextual Fear Conditioning after acute hippocampal injection. The format is in vivo, mouse. On the procedure:
FIG. 11. CREB activation by osteocalcin is functionally relevant. Contextual fear conditioning in 3.5 month old mice injected acutely with 10 ng recombinant uncarboxylated osteocalcin 24 hours prior to context exposure. 3 shocks of 0.55 mA were delivered to mice 1 min apart.
To determine whether these acute injections and corresponding activation of the CREB pathway are functionally relevant, Contextual Fear Conditioning (CFC), a hippocampus dependent task that assesses long term memory, was performed. Mice were injected acutely in both hemispheres with either PBS or 10 ng recombinant uncarboxylated osteocalcin.

Experiment [1] relates to brainstem neurons (dorsal raphe 5-HT neurons, locus coeruleus, GABAergic interneurons). Description: Whole cell current clamp recording in brainstem slices. The note with it: whole cell current clamp. In kind it is cell-based, mouse.
Description: Brain slice preparations and electrophysiological recordings were performed according to methods known in the art. Briefly, WT mice were anesthetized with ether and then decapitated. The brains were rapidly removed and immersed in an oxygenated bath solution at 40° C. containing (in mM): sucrose 220, KCl 2.5, CaCl2 1, MgC12 6, NaH2PO4 1.25, NaHCO3 26, and glucose 10 pH 7.3 with NaOH. Coronal slices (350 μm thick) containing dorsal raphe (DR) were cut on a vibratome and maintained in a holding chamber with artificial cerebrospinal fluid (ACSF) (bubbled with 5% CO2 and 95% O2) containing (in mM): NaCl 124, KCl 3, CaCl2 2, MgCl2 2, NaH2PO4 1.23, NaHCO3 26, glucose 10, pH 7.4 with NaOH, and were transferred to a recording chamber constantly perfused with bath solution (330 C) at 2 ml/min after at least a 1 hr recovery. Whole-cell current clamp was performed to observe action potentials in DR serotoninergic (5-HT) neurons with a Multiclamp 700A amplifier (Axon instrument, CA). Patch pipettes with a tip resistance of 4-6 MΩ were made of borosilicate glass (World Precision Instruments) with a Sutter pipette puller (P-97) and filled with a pipette solution containing (in mM): K-gluconate (or Cs-gluconate) 135, MgCl2 2, HEPES 10, EGTA 1.1, Mg-ATP 2, Na2-phosphocreatine 10, and Na2-GTP 0.3, pH 7.3 with KOH. After a giga-Ohm (GΩ) seal and whole-cell access were achieved, the series resistance (between 20 and 40 MΩ) was partially compensated by the amplifier. […] All data were sampled at 3-10 kHz and filtered at 1-3 kHz with an Apple Macintosh computer using Axograph 4.9 (Axon Instruments). Electrophysiological data were analyzed with Axograph 4.9 and plotted with Igor Pro software (WaveMetrics, Lake Oswego, Oreg.).
A further experiment deals with 3 month-old WT mice. In words: Alendronate treatment with or without osteocalcin, MWMT and NOR. To be noted: peripheral delivery of osteocalcin, 60 ng/hr by osmotic pump. In kind it is in vivo, mouse. Here is the method: For plasma injection experiments, 100 μl of plasma were injected 8 times during 24 days, via tail vein. Each group described is represented individually in each panel. For osteocalcin delivery in WT mice, pumps (Alzet micro-osmotic pump, Model 1002) delivering osteocalcin (30 ng/hr for 12 month-old and 90 ng/hr for 16 month-old mice), or vehicle, were surgically installed subcutaneously in the back of mice. […] Control mice receiving vehicle or mice receiving alendronate were implanted with osmotic pumps delivering vehicle only.
Morris water maze test: Animals are transported to the testing room in their home cages, and left undisturbed for at least 30 minutes prior to the first trial. The maze is comprised of a large swimming pool (150cm diameter) filled with water (23° C.) made opaque with non-toxic white paint. The pool is located in a brightly lit room filled with visual cues, including geometric figures on the walls of the maze demarking the four fixed starting positions of the trials, at (12:00, 3:00, 6:00 and 9:00). A 15 cm round platform is hidden 1 cm beneath the surface of the water at a fixed position. Each daily trial block consisted of four swimming trials, with each mouse starting from the same randomly chosen starting position. The starting position is varied between days. On day 1, mice that fail to find the platform within 2 min are guided to the platform. They must remain on the platform for 15 s before they are returned to their home cage. Mice are not guided to the platform after day 1, and the time it takes them to reach the platform over repeated trials ([…] for the next 10 days) is recorded as a measure of spatial learning.
Novel object recognition test (NOR): The NOR paradigm assesses the rodent's ability to recognize a novel object in the environment. The NOR task will be conducted, as previously described7, in an opaque plastic box using 2 different objects: (1) a clear plastic funnel (diameter 8.5 cm, maximal height 8.5 cm) and (2) a black plastic box (9.5 cm^3). These objects elicit equal levels of exploration as determined in pilot experiments (Denny, C. A., et al., 2012, Hippocampus 22:1188-1201; Oury, F., et al., 2013, Cell 155:228-241). The NOR paradigm consists of 3 exposures over the course of 3 days. On day 1, the habituation phase, mice are given 5 minutes to explore the empty arena, without any objects. On day 2, the familiarization phase, mice are given 10 minutes to explore 2 identical objects, placed at opposite ends of the box. On day 3, the test phase, mice are given 15 minutes to explore 2 objects, one novel object and a copy of the object from the familiarization phase. The object that serves as the novel object (either the funnel or the box) as well as the left/right starting position of the objects are counterbalanced within each group. Mice are placed in the center of the arena at the start of each exposure. […] Preference for the novel object is assessed based on the fraction of time that a mouse spends exploring the novel object compared to the familiar object. Exploration is scored from video recordings of each exposure and recorded using the Stopwatch program. […]
Streptavidin were added for 30 minutes at room temperature followed by PBS washes. […] For hormonal measurement; circulating levels of the carboxylated, undercarboxylated or uncarboxylated forms of osteocalcin were measured by ELISA. CTX content in serum (ng/ml) were measured with specific ELISAs (RatLaps™ (CTX-I) EIA (Immunodiagnosticsystems).

Entries after “also recorded” stand apart in the source; their conditions may differ.

As to “osteocalcin: Recombinant osteocalcin bacterially produced, cleaved from the GST subunit; completely undercarboxylated at all three sites; full-length mouse osteocalcin (YLGASVPSPDPLEPTREQCELNPACDELSDQYGLKTAYKRIYGITI)”, the “% freezing on Day 1 (CFC)” value in the experiment with WT mice (10 ng injected 24 hours prior to context exposure) is on record as “% freezing was the same for both groups”. The “freezing behavior 24 hours after the initial shocks (CFC)” value in the experiment with WT mice (10 ng injected acutely in both hemispheres, listed as recombinant uncarboxylated osteocalcin) was “increased freezing behavior as compared to controls; also recorded: increased freezing along with hyperexcitability”. In experiment [1], the “action potential frequency in neurons of the locus coeruleus” value is “decreases it”, the “action potential frequency of brainstem neurons” value was “activates the action potential frequency” and the “action potential frequency of the GABAergic interneurons of the hindbrain” value is listed as “inhibits the action potential frequency”. Further, the “behavioral abnormalities (MWMT, NOR) of alendronate-treated mice” value in the experiment with 3 month-old WT mice was “corrected”.

The record behind these values is US20200069775A1, “BRAIN OSTEOCALCIN RECEPTOR AND COGNITIVE DISORDERS” (The Trustees of Columbia University in the City of New York, priority 2017, published 2020).
